According to patent US20150181881A1, “METHODS FOR CONTROLLING FUNGAL DISEASES IN MUSHROOM PRODUCTION” (DSM IP ASSETS B.V., priority 2012, published 2015):

Experiments:
Verticillium fungicola = assay: In vitro antifungal activity in 96-well microtiter plates against Verticillium fungicola; format: cell-based
Protocol: The following compositions are tested: • Control (no active ingredient), • 1.25 or 2.5 ppm natamycin (DSM Food Specialties, Delft, The Netherlands), • 0.5 ppm chlorothalonil, • 1.25 ppm natamycin+0.5 ppm chlorothalonil, • 2.5 ppm natamycin+0.5 ppm chlorothalonil. […] Subsequently, 100 μl of a Verticillium fungicola suspension prepared in PCB medium is used to inoculate each well with 5.0×10^3 spores/ml. […] After incubation of the microtiter plates for 3 and 5 days at 25° C., the in vitro antifungal activity (%) of the individual active ingredients was assessed by calculating the reduction in mould growth observed in the presence of the active ingredient in comparison to the mould growth observed in the absence of the active ingredient. The expected antifungal activity (E in %) of the active ingredient combination was calculated according to the Colby equation (Colby, 1967): […] wherein X and Y are the observed antifungal activities (in %) of the individual active ingredients X and Y, respectively.

Trichoderma harzianum = assay: In vitro antifungal activity in 96-well microtiter plates against Trichoderma harzianum; format: cell-based
Protocol: Subsequently, 100 μl of a Verticillium fungicola suspension prepared in PCB medium is used to inoculate each well with 5.0×10^3 spores/ml.
, the in vitro antifungal activity (%) of the individual active ingredients was assessed by calculating the reduction in mould growth observed in the presence of the active ingredient in comparison to the mould growth observed in the absence of the active ingredient. The expected antifungal activity (E in %) of the active ingredient combination was calculated according to the Colby equation (Colby, 1967): […]
wherein X and Y are the observed antifungal activities (in %) of the individual active ingredients X and Y, respectively. If the observed antifungal activity (O in %) of the combination exceeds the expected antifungal activity (E in %) of the combination and the resulting synergy factor O/E is thus >1.0, the combined application of the active ingredients leads to a synergistic antifungal effect.
Furthermore, Trichoderma harzianum was used for inoculation.

[1] = Chlorothalonil 0.5 ppm, incubation 5 days at 25° C.

Measured: Observed antifungal activity O (%)

N#Cc1c(Cl)c(Cl)c(Cl)c(C#N)c1Cl [Chlorothalonil, 2,4,5,6-tetrachloroisophthalonitrile]
0%: Verticillium fungicola; Chlorothalonil 0.5 ppm, incubation 3 days at 25° C. | Verticillium fungicola; [1] | Trichoderma harzianum; [1] | Trichoderma harzianum; Chlorothalonil 1.0 ppm, incubation 10 days at 25° C. | Trichoderma harzianum; Chlorothalonil 1.0 ppm, incubation 17 days at 25° C. | Trichoderma harzianum; Chlorothalonil 1.5 ppm, incubation 17 days at 25° C.

C[C@@H]1C/C=C/C=C/C=C/C=C/[C@H](O[C@@H]2O[C@H](C)[C@@H](O)[C@H](N)[C@@H]2O)C[C@@H]2O[C@](O)(C[C@@H](O)C[C@H]3O[C@@H]3/C=C/C(=O)O1)C[C@H](O)[C@H]2C(=O)O [Natamycin, natamycin]
0%: Verticillium fungicola; Natamycin 1.25 ppm, incubation 3 days at 25° C. | Verticillium fungicola; Natamycin 2.5 ppm, incubation 5 days at 25° C. | Trichoderma harzianum; Natamycin 1.25 ppm, incubation 5 days at 25° C. | Trichoderma harzianum; Natamycin 1.25 ppm, incubation 10 days at 25° C. | Trichoderma harzianum; Natamycin 1.25 ppm, incubation 17 days at 25° C. | Trichoderma harzianum; Natamycin 2.5 ppm, incubation 17 days at 25° C.
